Usually AC50 stands for the concentration at which the activity in the assay is half-maximal. Usually pIC50 stands for the negative decadic logarithm of the IC50, by convention in mol/L.

The target in test [1] is T1, Leukotriene A-4 hydrolase (Homo sapiens, UniProt P09960).
T1 sequence (P09960 whole entry): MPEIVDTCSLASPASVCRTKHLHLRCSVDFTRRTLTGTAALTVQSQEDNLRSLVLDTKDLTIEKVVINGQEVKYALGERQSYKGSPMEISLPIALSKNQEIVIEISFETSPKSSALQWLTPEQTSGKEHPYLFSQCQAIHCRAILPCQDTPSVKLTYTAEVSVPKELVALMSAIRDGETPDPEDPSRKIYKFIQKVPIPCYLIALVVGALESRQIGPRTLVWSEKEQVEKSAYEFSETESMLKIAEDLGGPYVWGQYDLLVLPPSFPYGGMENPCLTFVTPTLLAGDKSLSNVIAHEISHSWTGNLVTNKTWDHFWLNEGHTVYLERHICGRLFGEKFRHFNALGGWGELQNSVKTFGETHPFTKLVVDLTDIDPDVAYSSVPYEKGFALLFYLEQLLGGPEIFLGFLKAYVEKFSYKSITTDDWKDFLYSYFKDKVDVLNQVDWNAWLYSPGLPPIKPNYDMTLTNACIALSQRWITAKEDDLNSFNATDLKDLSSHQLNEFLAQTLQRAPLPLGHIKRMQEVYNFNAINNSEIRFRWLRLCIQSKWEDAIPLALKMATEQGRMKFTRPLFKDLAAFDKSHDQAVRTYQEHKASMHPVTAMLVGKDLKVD
Kind of test: Activation of N-terminal (His)6 and Xpress-tagged LTA4H (unknown origin) expressed in Escherichia coli BL21(DE3) cells assessed as increase in aminopeptidase activity by measuring p-nitroanilide release using L-Alanine-p-nitroanilide incubated for 10 mins by UV plate reader based assay.

Test [2] deals with T2, Leukotriene A-4 hydrolase (Homo sapiens) (UniProt P09960).
T2 sequence (whole entry): T1 sequence (P09960 whole entry)
Kind of test: Activation of N-terminal (His)6 and Xpress-tagged LTA4H (unknown origin) expressed in Escherichia coli BL21(DE3) cells assessed as increase in aminopeptidase activity by measuring reciprocal allosteric coupling constant for hyperbolic mixed predominantly catalytic activation using L-Alanine-p-nitroanilide incubated for 10 mins by p-nitroanilide release detection based UV plate reader based assay.

Test [3] has as its target T2, Leukotriene A-4 hydrolase (Homo sapiens). Description: Activation of N-terminal (His)6 and Xpress-tagged LTA4H (unknown origin) expressed in Escherichia coli BL21(DE3) cells assessed as increase in aminopeptidase activity by measuring factor by which activator affects catalytic constant for hyperbolic mixed predominantly catalytic activation using L-Alanine-p-nitroanilide incubated for 10 mins by p-nitroanilide release detection based UV plate reader based assay.

For test [4] the target is unchanged. Kind of test: Activation of N-terminal (His)6 and Xpress-tagged LTA4H (unknown origin) expressed in Escherichia coli BL21(DE3) cells assessed as increase in aminopeptidase activity by measuring dissociation constant (KX) for hyperbolic mixed predominantly catalytic activation using L-Alanine-p-nitroanilide incubated for 10 mins by p-nitroanilide release detection based UV plate reader based assay.

For another test, the system named is Neutrophil. Description: Inhibition of LTB4 production in A23187-stimulated human neutrophils at 0.001 to 1000 microM incubated for 30 mins by ELISA. It is filed as functional, cell-based. (In general: In an ELISA, binding on a coated surface is turned into a signal by an enzyme label.)
For test [5], the target named is T1, Leukotriene A-4 hydrolase. Description: Inhibition of N-terminal (His)6 and Xpress-tagged LTA4H (unknown origin) expressed in Escherichia coli BL21(DE3) cells assessed as reduction in aminopeptidase activity by measuring p-nitroanilide release using L-Alanine-p-nitroanilide incubated for 10 mins by UV plate reader based assay.

pIC50: −log10 of the molar value. Calls of active or inactive are those of the source. The rule behind the calls is not given here.

Regarding `Cc1ccc(Cc2ccc(-c3csc(N)n3)cc2)cc1`, the AC50 in test [1] turned out to be 0.083 µM. Also, the K in test [2] is 1.64; in test [4], 0.1 µM. For the same molecule, the fold change (FC) in test [3] is 18.7.
In the case of `Cc1cccc(Cc2ccc(-c3csc(N)n3)cc2)c1`, the AC50 in test [1] worked out at 4.81 µM.
Same read-out and setting: for `Nc1nc(-c2ccc(Cc3cccc(C(F)(F)F)c3)cc2)cs1` the value was 69 µM; for `Cc1ccccc1Cc1ccc(-c2csc(N)n2)cc1`, 6.62 µM.
Consider `CC(C)C[C@H](NC(=O)[C@@H](O)[C@H](N)Cc1ccccc1)C(=O)O`, for which, in the test with Neutrophil, the inhibition entry was “Active”.
On to `Nc1nc(-c2ccc(Cc3ccccc3C(F)(F)F)cc2)cs1`, for which the pIC50 in test [5] is 5.08.
For the molecule `COc1cccc(Cc2ccc(-c3csc(N)n3)cc2)c1`, the AC50 in test [1] turned out to be 5.92 µM.
Turning to `Nc1nc(-c2ccc(Cc3ccccc3)cc2)cs1`, in test [1], the concentration at half-maximal activity (AC50) is 0.24 µM. Besides, the K amounted to 0.82 in test [2] and 1.35 µM in test [4]. For the same molecule, the fold change (FC) in test [3] turned out to be 25.4.
The corresponding values for `Nc1nc(-c2ccc(Cc3ccc(C(F)(F)F)cc3)cc2)cs1` are 1.39 µM, 9.51, 9.6 µM and 21.4.
The like results for `COc1ccc(Cc2ccccc2)cc1` were, in that order, 4.83 µM, 2.66, 0.18 µM and 23.6.
Regarding `COc1ccccc1Cc1ccc(-c2csc(N)n2)cc1`, the pIC50 in test [5] was 7.00.

The values are drawn from ChEMBL document CHEMBL4414660, “Effect of Modifier Structure on the Activation of Leukotriene A4 Hydrolase Aminopeptidase Activity” (J Med Chem, 2019).
